Laboratory results from patent US20220354863A1, “METHODS FOR THE PROPHYLACTIC TREATMENT OF CANCER IN PATIENTS SUFFERING FROM PANCREATITIS” (INSERM (INSTITUT NATIONAL DE LA SANTÈ ET DE LA RECHERCH …, priority 2019, published 2022).

How the values were obtained:
[1] = target: C2α (Homo sapiens, UniProt O00443); conditions: read-out: in vitro IC50 C2α; cited from earlier work
[2] = target: p110γ (Homo sapiens, UniProt P48736); conditions: read-out: in vitro IC50 γ; cited from earlier work
[3] = target: mTOR (Homo sapiens, UniProt P42345); conditions: cited from earlier work
[4] = target: p110δ (Homo sapiens, UniProt O00329); conditions: read-out: in vitro IC50 δ; cited from earlier work
[5] = system: caerulein-treated KC mice; assay: Caerulein-induced pancreatic injury in oncogenic Kras (KC) mice; format: in vivo; conditions: KrasG12D background, 10 mg/kg by gavage
Text: The LSL-Kras^G12D (from D Tuveson, Mouse Models of Human Cancers Consortium repository (NCI-Frederick, USA), Pdx1-cre (from DA Melton, Harvard University, Cambridge, Mass., USA), p110α^lox (from B. Vanhaesebroeck, UCL, London), strains were interbred on mixed background (CD1/C57B16) to obtain compound mutant Pdx1-Cre;LSL-Kras^G12D (named KC), pdx1-Cre;p110α^lox/lox (Pdx1-Cre;p110α^lox/lox were named α^inC; pdx1-Cre;LSL-Kras^G12D;p110α^lox/lox were named Kα^inC). Littermates not expressing Cre as well as Pdx1-Cre and p110α^lox/lox mice of the same age were used as control. All procedures and animal housing are conformed to the regulatory standards and were approved by the Ethical committee according to European legislation translated to French Law as Décret 2013-118 1 Feb. 2013 (APAFIS 3601-2015121622062840). Genotyping was performed as described: the genetically modified allele is called p110α^lox or p110α^ΔDFG (here named Rec) after Cre recombination. DFG is a conserved motif in the activation loop of the p110α kinase domain critical for its catalytic activity. The gene targeting strategy used is different from a traditional conditional knock-out strategy. […] Primers corresponds to post-cre primers used to verify the presence of recombined allele ΔDFG: ma9: -[…]; ma5: […]; annealing temperature: 65° C.; recombined ΔDFG-544 bp, wild type (+) or unrecombined lox- >10 kbp amplicon. Genotyping of tail or pancreas samples was performed after DNA extraction with Sigma kit (XNAT-100RXN).
Animals were euthanized 1, 3, 7 or 17 days later, and recombination verified before analysis as described in [44, 45].
Immunostainings were conducted using standard methods on formalin-fixed, paraffin-embedded tissues, including both mice and human pancreas.

[6] = target: vps34 (Homo sapiens, UniProt Q8NEB9); conditions: read-out: in vitro IC50 vps34; cited from earlier work
[7] = target: p110β (Homo sapiens, UniProt P42338); conditions: read-out: in vitro IC50 β; cited from earlier work
[8] = target: C2β (Homo sapiens, UniProt O00750); conditions: read-out: in vitro IC50 C2β; cited from earlier work
Sequence of C2β (O00750 whole entry): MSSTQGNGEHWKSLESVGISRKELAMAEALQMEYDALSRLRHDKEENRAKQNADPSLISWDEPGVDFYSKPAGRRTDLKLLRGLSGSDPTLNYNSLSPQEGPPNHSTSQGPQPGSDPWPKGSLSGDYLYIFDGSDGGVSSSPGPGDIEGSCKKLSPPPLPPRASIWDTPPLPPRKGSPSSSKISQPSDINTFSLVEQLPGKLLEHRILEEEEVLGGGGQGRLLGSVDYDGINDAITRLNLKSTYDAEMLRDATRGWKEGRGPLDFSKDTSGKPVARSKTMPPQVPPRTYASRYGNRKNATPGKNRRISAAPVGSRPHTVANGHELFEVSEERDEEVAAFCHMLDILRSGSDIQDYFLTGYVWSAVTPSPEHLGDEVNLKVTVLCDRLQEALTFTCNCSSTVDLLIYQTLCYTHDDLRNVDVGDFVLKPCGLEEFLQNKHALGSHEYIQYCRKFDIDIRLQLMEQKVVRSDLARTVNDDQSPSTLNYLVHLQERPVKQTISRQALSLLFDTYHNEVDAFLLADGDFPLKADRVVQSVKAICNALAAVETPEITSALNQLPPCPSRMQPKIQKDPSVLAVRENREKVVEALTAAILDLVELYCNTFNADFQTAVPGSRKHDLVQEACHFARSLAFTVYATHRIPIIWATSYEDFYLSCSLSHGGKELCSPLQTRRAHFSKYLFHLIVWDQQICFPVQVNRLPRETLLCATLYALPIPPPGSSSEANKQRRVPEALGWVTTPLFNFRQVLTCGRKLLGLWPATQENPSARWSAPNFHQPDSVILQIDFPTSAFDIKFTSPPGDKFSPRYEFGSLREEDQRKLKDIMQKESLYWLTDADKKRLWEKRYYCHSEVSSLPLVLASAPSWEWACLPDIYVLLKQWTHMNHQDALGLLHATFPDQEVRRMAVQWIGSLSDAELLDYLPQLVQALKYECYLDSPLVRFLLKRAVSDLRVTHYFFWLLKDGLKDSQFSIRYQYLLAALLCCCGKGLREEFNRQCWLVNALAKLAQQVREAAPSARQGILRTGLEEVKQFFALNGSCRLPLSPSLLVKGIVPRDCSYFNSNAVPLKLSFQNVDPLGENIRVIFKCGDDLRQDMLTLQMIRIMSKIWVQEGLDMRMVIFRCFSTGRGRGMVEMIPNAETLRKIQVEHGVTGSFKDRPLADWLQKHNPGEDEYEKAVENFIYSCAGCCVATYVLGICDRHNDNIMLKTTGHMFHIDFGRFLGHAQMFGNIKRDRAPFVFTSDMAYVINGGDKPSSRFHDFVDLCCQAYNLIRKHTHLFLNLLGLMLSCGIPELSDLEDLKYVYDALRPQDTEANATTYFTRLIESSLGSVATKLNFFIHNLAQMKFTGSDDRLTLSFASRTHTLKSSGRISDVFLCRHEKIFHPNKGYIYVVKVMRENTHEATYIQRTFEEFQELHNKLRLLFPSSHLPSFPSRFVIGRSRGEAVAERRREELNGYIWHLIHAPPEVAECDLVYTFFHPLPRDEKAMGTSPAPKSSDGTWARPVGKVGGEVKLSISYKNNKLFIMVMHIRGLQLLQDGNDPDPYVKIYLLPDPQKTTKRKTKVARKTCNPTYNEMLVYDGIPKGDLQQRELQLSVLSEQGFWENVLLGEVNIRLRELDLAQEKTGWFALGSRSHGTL

Sequence of p110β (P42338 whole entry): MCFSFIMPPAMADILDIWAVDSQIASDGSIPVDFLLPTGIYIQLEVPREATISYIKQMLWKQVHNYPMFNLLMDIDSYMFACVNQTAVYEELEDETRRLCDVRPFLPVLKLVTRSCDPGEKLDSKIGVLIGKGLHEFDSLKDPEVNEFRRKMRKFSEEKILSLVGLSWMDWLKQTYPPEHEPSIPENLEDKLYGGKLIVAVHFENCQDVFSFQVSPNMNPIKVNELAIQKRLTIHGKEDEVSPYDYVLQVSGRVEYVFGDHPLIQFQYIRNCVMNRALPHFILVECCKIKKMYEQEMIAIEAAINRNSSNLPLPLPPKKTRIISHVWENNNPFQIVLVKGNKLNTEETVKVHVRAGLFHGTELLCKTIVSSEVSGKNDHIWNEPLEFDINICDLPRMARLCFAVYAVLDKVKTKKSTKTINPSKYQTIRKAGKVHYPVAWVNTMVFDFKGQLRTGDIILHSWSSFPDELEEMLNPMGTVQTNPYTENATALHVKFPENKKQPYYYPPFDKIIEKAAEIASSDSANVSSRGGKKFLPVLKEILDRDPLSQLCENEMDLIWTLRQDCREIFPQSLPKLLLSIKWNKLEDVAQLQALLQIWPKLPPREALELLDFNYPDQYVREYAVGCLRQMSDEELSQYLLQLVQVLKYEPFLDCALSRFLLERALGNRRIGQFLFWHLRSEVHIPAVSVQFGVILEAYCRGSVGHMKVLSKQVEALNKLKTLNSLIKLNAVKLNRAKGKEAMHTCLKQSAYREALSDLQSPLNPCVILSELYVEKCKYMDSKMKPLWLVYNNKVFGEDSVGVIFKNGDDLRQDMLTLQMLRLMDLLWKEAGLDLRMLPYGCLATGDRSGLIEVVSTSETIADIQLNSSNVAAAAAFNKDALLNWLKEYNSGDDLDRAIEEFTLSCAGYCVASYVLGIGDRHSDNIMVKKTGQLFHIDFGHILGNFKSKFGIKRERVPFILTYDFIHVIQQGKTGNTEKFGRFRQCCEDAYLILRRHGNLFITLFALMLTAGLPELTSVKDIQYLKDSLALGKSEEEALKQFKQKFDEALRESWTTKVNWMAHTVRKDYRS
Sequence of p110β (P27986 whole entry partner): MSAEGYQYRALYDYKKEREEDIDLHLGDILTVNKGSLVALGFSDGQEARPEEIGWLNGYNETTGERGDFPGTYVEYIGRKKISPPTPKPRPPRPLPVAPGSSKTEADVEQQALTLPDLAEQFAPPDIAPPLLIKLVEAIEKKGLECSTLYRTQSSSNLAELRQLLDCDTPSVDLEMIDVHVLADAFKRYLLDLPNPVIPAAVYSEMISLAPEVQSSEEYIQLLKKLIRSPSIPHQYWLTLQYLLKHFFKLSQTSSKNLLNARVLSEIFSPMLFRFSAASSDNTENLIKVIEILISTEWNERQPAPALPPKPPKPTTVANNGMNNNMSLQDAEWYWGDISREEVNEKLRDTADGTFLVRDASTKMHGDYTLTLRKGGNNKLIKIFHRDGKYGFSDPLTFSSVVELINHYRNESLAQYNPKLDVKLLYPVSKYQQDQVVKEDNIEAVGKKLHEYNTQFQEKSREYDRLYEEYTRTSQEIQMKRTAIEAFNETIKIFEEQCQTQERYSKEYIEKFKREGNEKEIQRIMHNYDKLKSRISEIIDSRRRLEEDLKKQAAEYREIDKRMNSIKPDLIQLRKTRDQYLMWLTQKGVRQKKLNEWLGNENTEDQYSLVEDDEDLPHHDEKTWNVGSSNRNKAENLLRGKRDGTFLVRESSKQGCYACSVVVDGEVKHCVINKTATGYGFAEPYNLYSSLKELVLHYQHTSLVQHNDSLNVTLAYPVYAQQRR
Sequence of p110δ (O00329 whole entry): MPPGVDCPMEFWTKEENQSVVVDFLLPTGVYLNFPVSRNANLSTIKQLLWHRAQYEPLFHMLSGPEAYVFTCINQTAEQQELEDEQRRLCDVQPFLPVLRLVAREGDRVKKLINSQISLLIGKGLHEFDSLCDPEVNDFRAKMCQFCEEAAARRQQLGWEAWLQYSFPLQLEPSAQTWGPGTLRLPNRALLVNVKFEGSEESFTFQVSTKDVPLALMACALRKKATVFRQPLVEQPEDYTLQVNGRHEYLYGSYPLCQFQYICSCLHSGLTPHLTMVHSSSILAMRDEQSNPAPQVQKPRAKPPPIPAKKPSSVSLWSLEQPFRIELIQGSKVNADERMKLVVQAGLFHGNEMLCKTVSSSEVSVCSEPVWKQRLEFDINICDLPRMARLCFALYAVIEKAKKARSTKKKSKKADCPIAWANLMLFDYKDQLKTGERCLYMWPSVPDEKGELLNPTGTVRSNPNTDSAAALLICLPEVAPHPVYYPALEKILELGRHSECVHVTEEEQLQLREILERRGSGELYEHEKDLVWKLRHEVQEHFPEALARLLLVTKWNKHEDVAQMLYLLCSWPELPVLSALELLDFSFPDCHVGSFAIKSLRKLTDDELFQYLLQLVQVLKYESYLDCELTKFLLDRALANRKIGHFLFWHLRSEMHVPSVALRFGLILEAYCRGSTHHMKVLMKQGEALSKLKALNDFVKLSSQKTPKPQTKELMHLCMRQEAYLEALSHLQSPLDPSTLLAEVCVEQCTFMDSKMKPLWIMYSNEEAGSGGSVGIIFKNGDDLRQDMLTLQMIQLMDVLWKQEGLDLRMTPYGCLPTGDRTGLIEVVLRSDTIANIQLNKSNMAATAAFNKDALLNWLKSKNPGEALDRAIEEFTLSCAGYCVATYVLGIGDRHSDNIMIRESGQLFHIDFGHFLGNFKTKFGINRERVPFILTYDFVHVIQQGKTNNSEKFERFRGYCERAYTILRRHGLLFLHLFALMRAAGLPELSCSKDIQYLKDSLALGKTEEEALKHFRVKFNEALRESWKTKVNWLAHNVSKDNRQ
Sequence of p110δ (P27986 whole entry partner): as the sequence (P27986 whole entry partner) above

CC(C)n1ncnc1-c1cn2c(n1)-c1ccc(O[C@@H](C)C(N)=O)cc1OCC2 [GDC0326, (S)-2-((2-(1-Isopropyl-1H-1,2,4-triazol-5-yl)-5,6-dihydrobenzo[f]imidazo [1,2-d][1,4]oxazepin-9-yl)oxy)propanamide]
IC50 [1]: > 10 µM
IC50 [2]: 0.051 µM
Ki [3]: 4.3 µM
IC50 [4]: 0.02 µM
activation of the stromal compartment (CD18 immune cell staining, picrosirius red collagen deposit staining) [5]: reversed the activation of the stromal compartment
lesion area ([5]; day 17, compared to caerulein-treated KC mice that received vehicle): significant decrease of lesion area
p-Akt substrate staining ([5]; day 17, vs vehicle): absence of p-Akt Subsrate staining
IC50 [6]: 2.84 µM
IC50 [7]: 0.133 µM
IC50 [8]: 0.261 µM
